What all share (assay type): biochemical
One assay deals with T1, papain (Carica papaya, UniProt P00784).
T1 sequence (P00784 134-345): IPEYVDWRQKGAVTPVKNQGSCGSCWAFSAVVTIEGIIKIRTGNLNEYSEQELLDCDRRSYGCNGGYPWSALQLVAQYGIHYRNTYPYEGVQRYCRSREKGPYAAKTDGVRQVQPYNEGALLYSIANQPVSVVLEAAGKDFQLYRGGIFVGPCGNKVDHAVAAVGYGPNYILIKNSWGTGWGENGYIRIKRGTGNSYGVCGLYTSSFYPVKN
Kind of assay: Thiol protease inhibitory activity, papain (P-3125, Sigma). The protocol:
(§1) Inhibitory activity against papain (P-3125, Sigma) and cathepsin B (C-6286, Sigma) was assayed according to the method described in a literature [Biochemical Journal, 201, 189 (1982)]. Cathepsin L was purified from rat kidney according to the method in a literature [Journal of Biochemistry, 100, 35 (1986)], and the inhibitory activity against it was assayed in the same manner as described in the above literature for cathepsin B. Furthermore, m-calpain was purified from rat brain according to a known method [Journal of Biological Chemistry, 254, p. 3210 (1984)] and the inhibitory activity against it was assayed by a method described in a literature [Journal of Biological Chemistry, 259, 12489 (1984)]. It is evident from Tables 3 and 4 that the compounds of the present invention have a potent inhibitory activity against thiol proteases such as papain, cathepsin B, cathepsin L or m-calpain.

A further assay deals with T2, cathepsin B (Bos taurus, UniProt P07688).
T2 construct: purchased Sigma C-6286
Put plainly: Thiol protease inhibitory activity, cathepsin B (C-6286, Sigma). Particulars: Table 3. The protocol: as §1

A further assay has as its target T3, cathepsin L (Rattus norvegicus, UniProt P07154).
T3 construct: Cathepsin L was purified from rat kidney; from tissue; host or cells: rat kidney
Put plainly: Thiol protease inhibitory activity, cathepsin L purified from rat kidney. Particulars: Table 3. The protocol:
as §1

The target in another assay is T4, m-calpain (Rattus norvegicus, UniProt Q07009).
T4 construct: m-calpain was purified from rat brain; from tissue; host or cells: rat brain
T4 sequence (Q07009 20-700 limits assumed): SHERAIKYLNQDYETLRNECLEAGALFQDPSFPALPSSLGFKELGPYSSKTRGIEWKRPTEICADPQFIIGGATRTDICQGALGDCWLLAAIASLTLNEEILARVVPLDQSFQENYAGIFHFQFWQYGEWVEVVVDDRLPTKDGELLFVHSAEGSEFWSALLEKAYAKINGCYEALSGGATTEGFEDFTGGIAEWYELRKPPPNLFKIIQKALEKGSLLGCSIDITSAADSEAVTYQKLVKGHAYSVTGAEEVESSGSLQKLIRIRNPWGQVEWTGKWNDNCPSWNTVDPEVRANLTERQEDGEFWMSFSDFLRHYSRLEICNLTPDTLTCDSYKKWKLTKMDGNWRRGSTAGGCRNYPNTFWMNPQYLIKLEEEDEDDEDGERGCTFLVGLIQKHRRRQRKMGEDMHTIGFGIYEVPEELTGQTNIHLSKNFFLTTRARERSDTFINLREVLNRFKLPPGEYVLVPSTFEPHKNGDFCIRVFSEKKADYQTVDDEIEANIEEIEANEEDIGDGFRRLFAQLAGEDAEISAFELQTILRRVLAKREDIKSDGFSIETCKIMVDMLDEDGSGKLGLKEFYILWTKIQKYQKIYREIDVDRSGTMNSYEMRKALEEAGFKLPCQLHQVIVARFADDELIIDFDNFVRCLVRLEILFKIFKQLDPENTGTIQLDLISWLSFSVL
T4 sequence (Q64537 1-270 partner): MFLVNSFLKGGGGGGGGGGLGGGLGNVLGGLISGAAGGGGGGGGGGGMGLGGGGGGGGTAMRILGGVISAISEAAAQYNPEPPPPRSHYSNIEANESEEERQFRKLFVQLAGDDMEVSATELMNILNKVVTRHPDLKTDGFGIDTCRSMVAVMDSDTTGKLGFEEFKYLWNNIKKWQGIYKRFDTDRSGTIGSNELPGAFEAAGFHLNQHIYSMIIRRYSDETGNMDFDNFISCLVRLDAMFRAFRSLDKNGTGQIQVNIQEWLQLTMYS
Put plainly: Thiol protease inhibitory activity, m-calpain purified from rat brain. To be noted: Table 3. On the procedure: as §1

Read-outs that look alike come from different tables or passages of the source. Some results are limits rather than exact numbers.

T3 sequence (P07154 114-334): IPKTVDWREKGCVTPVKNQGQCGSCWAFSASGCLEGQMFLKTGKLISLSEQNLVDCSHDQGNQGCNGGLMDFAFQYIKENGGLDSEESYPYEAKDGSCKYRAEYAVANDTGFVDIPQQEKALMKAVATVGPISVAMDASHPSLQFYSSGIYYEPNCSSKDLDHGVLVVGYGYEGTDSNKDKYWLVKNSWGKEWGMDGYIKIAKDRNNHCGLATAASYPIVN

Broadly, the IC50 is the concentration that inhibits the measured activity by half. With `CCC(C)[C@H](NC(=O)OCC1CCCCC1)C(=O)N[C@@H](Cc1ccccc1)C(=O)CSCc1ccco1` (some centres unmarked) [135 (No. 288), (s)-3-((s)-2-cyclohexylmethoxycarbonylamino-3-methylvalerylamino)-1-furfurylthio-4-phenyl-2-butanone], the IC50 came to 59000 nM at papain (Table 3, read-out: IC50 papain); 310 nM at cathepsin B; 54 nM against cathepsin L; 3200 nM against m-calpain.

As to `CC(C)C[C@H](NC(=O)Cc1ccc2ccccc2c1)C(=O)N[C@@H](Cc1ccccc1)C(=O)CSCc1ccco1` [160 (No. 334), (s)-1-furfurylthio-3-[(s)-4-methyl-2-(2-naphtylacetylamino)valerylamino]-4-phenyl-2-butanone], the IC50 on papain (Table 3, read-out: IC50 papain) is 35000 nM; at cathepsin B it was 3300 nM; at cathepsin L, 6600 nM; against m-calpain, 28000 nM.

As for `CCCC[C@H](NC(=O)[C@H](CC(C)C)NC(=O)Cc1ccc(F)cc1)C(=O)CSCc1ccco1` [31 (No. 69), (s)-3-[(s)-2-(4-fluorophenylacetylamino)-4-methylvalerylamino]-1-furfurylthio-2-heptanone], the IC50 on papain (Table 3, read-out: IC50 papain) stood at 1400 nM; against cathepsin B, 550 nM; on cathepsin L it was 630 nM; against m-calpain, 22000 nM.

For the molecule `CC(C)C[C@H](NC(=O)Cc1cccc2ccccc12)C(=O)N[C@@H](Cc1ccccc1)C(=O)CSCc1ccco1` [159 (No. 333), (s)-1-furfurylthio-3-[(s)-4-methyl-2-(l-naphtylacetylamino)valerylamino]-4-phenyl-2-butanone], the IC50 stood at 380 nM on papain (Table 3, read-out: IC50 papain); 750 nM against cathepsin B; 1100 nM against cathepsin L; 1900 nM against m-calpain.

For `CCCC[C@H](NC(=O)[C@H](CC(C)C)NC(=O)COc1cccc(Cl)c1Cl)C(=O)CSCc1ccco1` [41 (No. 91), (s)-3-[(s)-2-(2,3-dichlorophenoxyacetylamino)-4-methylvalerylamino]-1-furfurylthio-2-heptanone], the IC50 at papain (Table 3, read-out: IC50 papain) is 21000 nM; against cathepsin B it was 5700 nM; at cathepsin L, 1100 nM; against m-calpain it was 14000 nM.

Turning to `CCCC[C@H](NC(=O)[C@H](CC(C)C)NC(=O)COc1c(Cl)cc(Cl)cc1Cl)C(=O)CSCc1ccco1` [43 (No. 94), (s)-1-furfurylthio-3-[(s)-4-methyl-2-(2,4,6-trichlorophenoxyacetylamino)valerylamino]-2-heptanone], the IC50 at papain (Table 3, read-out: IC50 papain) is 370 nM; at cathepsin B, 57 nM; at cathepsin L it was 38 nM; at m-calpain it was 5800 nM.

Take `CC(C)C[C@H](NC(=O)c1cc2ccccc2o1)C(=O)N[C@@H](Cc1ccccc1)C(=O)CSCc1ccco1` [174 (No. 382), (s)-3-[(s)-2-(2-benzofuranylcarbonylamino)-4-methylvalerylamino]-1-furfurylthio-4-phenyl-2-butanone]: the IC50 on papain (Table 3, read-out: IC50 papain) was found to be 12000 nM; on cathepsin B it was 23000 nM; at cathepsin L, 1600 nM; against m-calpain, 16000 nM.

`CSCC(=O)[C@H](CCc1ccccc1)NC(=O)[C@H](CC(C)C)NC(=O)COc1ccccc1` [203 (No. 536), (s)-3-((s)-4-methyl-2-phenoxyacetylaminovalerylamino)-1-methylthio-5-phenyl-2-pentanone]: the IC50 against papain came out at 4400 nM; on cathepsin B, 340 nM; at cathepsin L, 380 nM; at m-calpain, 9100 nM.

For the molecule `CC(C)C[C@H](NC(=O)COc1ccccc1)C(=O)N[C@@H](CCc1ccccc1)C(=O)CSCc1ccco1` [206 (No. 543), (s)-1-furfurylthio-3-((s)-4-methyl-2-phenoxyacetylaminovalerylamino)-5-phenyl-2-pentanone], the IC50 was 6000 nM against papain, 820 nM against cathepsin B, 620 nM against cathepsin L and 15000 nM against m-calpain.

On to `CCCC[C@H](NC(=O)[C@H](CC(C)C)NC(=O)Cc1cccc2ccccc12)C(=O)CSCc1ccco1` [33 (No. 76), (s)-1-furfurylthio-3-[(s)-4-methyl-2-(1-naphtylacetylamino)valerylamino]-2-heptanone], for which the IC50 at papain (Table 3, read-out: IC50 papain) stood at 700 nM; at cathepsin B, 1200 nM; against cathepsin L, 270 nM; against m-calpain it was 6400 nM.

Regarding `CCCC[C@H](NC(=O)[C@H](CC(C)C)NC(=O)OCc1ccccc1)C(=O)CSCc1ccco1` [22 (No. 48), (s)-3-((s)-2-benzyloxycarbonylamino-4-methylvalerylamino)-1-furfurylthio-2-heptanone], the IC50 amounted to 1100 nM at papain (Table 3, read-out: IC50 papain); 980 nM against cathepsin B; 1300 nM against cathepsin L; 11000 nM at m-calpain.

`CCCC[C@H](NC(=O)[C@H](CC(C)C)NC(=O)Cc1csc2ccccc12)C(=O)CSCc1ccco1` [34 (No. 79), (s)-3-[(s)-2-(3-benzothienylacetylamino)-4-methylvalerylamino]-1-furfurylthio-2-heptanone]: the IC50 on papain (Table 3, read-out: IC50 papain) was 360 nM; against cathepsin B, 410 nM; against cathepsin L, 510 nM; against m-calpain it was 5500 nM.

Regarding `CSCC(=O)[C@H](CCc1ccccc1)NC(=O)[C@H](CC(C)C)NC(=O)OCc1ccccc1` [202 (No. 534), (s)-3-((s)-2-benzyloxycarbonylamino-4-methylvalerylamino)-1-methylthio-5-phenyl-2-pentanone], the IC50 is over 100000 nM at papain (Table 3, read-out: IC50 papain); 250 nM against cathepsin B; 390 nM against cathepsin L; 13000 nM at m-calpain.

In the case of `CCCC[C@H](NC(=O)[C@H](CC(C)C)NC(=O)COc1ccccc1C)C(=O)CSCc1ccco1` [44 (No. 96), (s)-1-furfurylthio-3-[(s)-4-methyl-2-(2-methylphenoxyacetylamino)valerylamino]-2-heptanone], the IC50 at papain (Table 3, read-out: IC50 papain) came to 880 nM; on cathepsin B, 170 nM; against cathepsin L, 60 nM; against m-calpain it was 22000 nM.

As to `CCCC[C@H](NC(=O)[C@H](CC(C)C)NC(=O)c1cccc2ccccc12)C(=O)CSCc1ccco1` [83 (No. 161), (s)-1-furfurylthio-3-[(s)-4-methyl-2-(1-naphtoylamino)valerylamino]-2-heptanone], the IC50 was 47000 nM on papain (Table 3, read-out: IC50 papain); 5000 nM on cathepsin B; 400 nM against cathepsin L; 12000 nM at m-calpain.

Regarding `CC(C)C[C@H](NC(=O)COc1ccccc1)C(=O)N[C@@H](Cc1ccc(Cl)cc1)C(=O)CSCc1ccco1` [197 (No. 511), (s)-4-(4-chlorophenyl)-1-furfurylthio-3-((s)-4-methyl-2-phenoxyacetylaminovalerylamino)-2-butanone], the IC50 stood at 13000 nM against papain, 6000 nM against cathepsin B, 1700 nM on cathepsin L and 7800 nM against m-calpain.

As to `CC(C)C[C@H](NC(=O)COc1cccc2ccccc12)C(=O)N[C@@H](Cc1ccccc1)C(=O)CSCc1ccco1` [170 (No. 364), (s)-1-furfurylthio-3-[(s)-4-methyl-2-(1-naphtoxyacetylamino)valerylamino]-4-phenyl-2-butanone], the IC50 at papain (Table 3, read-out: IC50 papain) was 9200 nM; at cathepsin B, 6500 nM; against cathepsin L it was 8600 nM; against m-calpain it was 19000 nM.

Source of the values: patent US5639783A, “Ketone derivatives” (Mitsubishi Chemical Corporation, priority 1991, dated 1997).
